{"source": "patent US4598089A", "about": "“Leucine derivatives” (Hoffmann-La Roche Inc., priority 1983, dated 1986)", "key": {"[1]": {"experiment": "acute toxicity, single oral administration to mice", "conditions": "mouse, in vivo", "procedure": "An emulsion which contains 1 mM taurodeoxycholate, 9 mM taurodeoleate, 0.1 mM cholesterol, 1 mM egg lecithin, 15 mg/ml BSA (i.e., bovine serum albumine), 2 mM Tris-HCl, 100 mM sodium chloride, 1 mM calcium chloride and the substrate triolein is treated with the compound of formula I dissolved in ethanol or dimethyl sulphoxide (10% of the emulsion volume) and the reaction is started by the addition of 100 μl (175 U) of pig pancreas lipase. the pH is held at 8 during the reaction by the addition of sodium hydroxide. The IC50 is calculated from the consumption of sodium hydroxide determined during 10 minutes. The IC50 is that concentration at which the lipase reactivity is inhibited to half of the maximum. Table I hereinafter contains IC50 values determined for the compounds of formula I and data concerning the acute toxicity (LD50 after single oral administration to mice)."}, "resorption of fats": {"system": "resorption of fats", "experiment": "inhibition of the resorption of fats, double-labelling experiment on mice (3H-triolein and 14C-oleic acid excreted with the feces)", "type": "in vivo", "conditions": "40 mg/kg lipstatin, given as preparation containing about 10% lipstatin, test meal", "procedure": "For this purpose, there is administered to the test animals a test meal, which contains ^3 H-triolein and ^14 C-oleic acid, and a compound of formula I. By measuring the radioactivity there is then determined the amount of ^3 H-triolein and ^14 C-oleic acid (in % of the amount administered) excreted with the feces.\n*The experiments were carried out with a preparation which contained abou\n10% lipstatin. The dosage specified is the amount of lipstatin"}, "pig pancreas lipase": {"molecular_target": "T1, pig pancreas lipase (Sus scrofa, UniProt P00591)", "T1 sequence (P00591 1-450)": "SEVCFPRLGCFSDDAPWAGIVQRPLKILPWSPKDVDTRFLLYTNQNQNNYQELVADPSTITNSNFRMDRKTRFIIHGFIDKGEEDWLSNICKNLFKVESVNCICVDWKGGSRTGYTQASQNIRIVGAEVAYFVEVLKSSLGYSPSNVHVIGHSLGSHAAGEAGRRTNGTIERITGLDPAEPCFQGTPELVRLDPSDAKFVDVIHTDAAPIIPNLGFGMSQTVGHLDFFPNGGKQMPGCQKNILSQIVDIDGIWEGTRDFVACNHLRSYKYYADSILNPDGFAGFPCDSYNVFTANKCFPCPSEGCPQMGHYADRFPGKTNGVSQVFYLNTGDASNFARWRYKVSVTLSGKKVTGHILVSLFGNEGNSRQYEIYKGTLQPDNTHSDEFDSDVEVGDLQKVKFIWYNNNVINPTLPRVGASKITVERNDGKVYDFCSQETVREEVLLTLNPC", "experiment": "inhibition of pancreas lipase (titrimetric, oleic acid liberated from triolein)", "type": "biochemical", "source_text": "The IC50 is that concentration at which the lipase reactivity is inhibited to half of the maximum."}}, "data": [{"smiles": "CCCCC/C=C\\C/C=C\\C[C@@H](C[C@@H]1OC(=O)[C@H]1CCCCCC)OC(=O)[C@H](CC(C)C)NC=O", "note": "[Lipstatin, (2S,3S,5S,7Z,10Z)-5-[(S)-2-formamido-4-methyl-valeryloxy]-2-hexyl-3-hydroxy-7,10-hexadecadienoic acid lactone]", "values": [{"measurement": "LD50", "setting": "[1]", "value": "> 4000", "unit": "mg/kg"}, {"measurement": "Excretion of Triolein in % of the amount administered", "setting": "resorption of fats; controls 3.5 ± 0.3", "value": "56.8 ± 13 % of the amount administered"}, {"measurement": "Excretion of Oleic acid in % of the amount administered", "setting": "resorption of fats; controls 10.1 ± 0.6", "value": "13.8 ± 5.6 % of the amount administered"}, {"measurement": "IC50", "setting": "pig pancreas lipase", "value": 142, "unit": "nM"}]}]}
